Measured values as given in PubChem BioAssay AID248 (DTP/NCI, 2004).
Values joined by “and” are separate entries in the source; they are usually repeats but may differ in a detail not shown here. Equal values may be shown once. Inconclusive results and toxic doses are left out. Cut-off read from the data, not from the text of the source: active = T/C of 150% or more; inactive = T/C below 125%.

Tested on: L1210 leukemia ip in BDF1 mice, survival T/C
Assay: NCI In Vivo Anticancer Drug Screen. Data for tumor model L1210 Leukemia (intraperitoneal) in B6D2F1 (BDF1) mice
Conditions: endpoint: mean survival time, higher = longer survival
Procedure, shortened: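 In this screen, tumor-bearing mice given compound are compared to those given vehicle, and their survival values are reported as a treated-to-control quotient.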

[1] = dose: 100.0 mg/kg/injection, schedule: Q01DX001 (ip), vehicle: Klucel (hydroxypropylcellulose) (HPC)
[2] = dose: 200.0 mg/kg/injection, schedule: Q01DX001 (ip), vehicle: Klucel (hydroxypropylcellulose) (HPC)
[3] = dose: 400.0 mg/kg/injection, schedule: Q01DX001 (ip), vehicle: Klucel (hydroxypropylcellulose) (HPC)
[4] = dose: 100.0 mg/kg/injection, schedule: Q04DX003 (ip), vehicle: Klucel (hydroxypropylcellulose) (HPC)
[5] = dose: 100.0 mg/kg/injection, schedule: Q01DX001 (ip), vehicle: saline
[6] = dose: 200.0 mg/kg/injection, schedule: Q01DX001 (ip), vehicle: saline
[7] = dose: 400.0 mg/kg/injection, schedule: Q01DX001 (ip), vehicle: saline
[8] = dose: 100.0 mg/kg/injection, schedule: Q01DX009 (ip), vehicle: saline with Tween-80
[9] = dose: 100.0 mg/kg/injection, schedule: Q04DX003 (ip), vehicle: saline with Tween-80
[10] = dose: 200.0 mg/kg/injection, schedule: Q01DX009 (ip), vehicle: saline with Tween-80
[11] = dose: 200.0 mg/kg/injection, schedule: Q04DX003 (ip), vehicle: saline with Tween-80
[12] = dose: 400.0 mg/kg/injection, schedule: Q04DX003 (ip), vehicle: saline with Tween-80
[13] = dose: 50.0 mg/kg/injection, schedule: Q04DX003 (ip), vehicle: saline
[14] = dose: 75.0 mg/kg/injection, schedule: Q04DX003 (ip), vehicle: saline
[15] = dose: 100.0 mg/kg/injection, schedule: Q01DX001 (ip), vehicle: carboxymethylcellulose (CMC)
[16] = dose: 200.0 mg/kg/injection, schedule: Q01DX001 (ip), vehicle: carboxymethylcellulose (CMC)
[17] = dose: 100.0 mg/kg/injection, schedule: Q01DX009 (ip), vehicle: saline
[18] = dose: 100.0 mg/kg/injection, schedule: Q01DX009 (ip), vehicle: Klucel (hydroxypropylcellulose) (HPC)
[19] = dose: 200.0 mg/kg/injection, schedule: Q01DX009 (ip), vehicle: Klucel (hydroxypropylcellulose) (HPC)
[20] = dose: 200.0 mg/kg/injection, schedule: Q04DX003 (ip), vehicle: Klucel (hydroxypropylcellulose) (HPC)
[21] = dose: 400.0 mg/kg/injection, schedule: Q04DX003 (ip), vehicle: Klucel (hydroxypropylcellulose) (HPC)
[22] = dose: 400.0 mg/kg/injection, schedule: Q01DX009 (ip), vehicle: Klucel (hydroxypropylcellulose) (HPC)
[23] = dose: 100.0 mg/kg/injection, schedule: Q04DX002 (ip), vehicle: saline with Tween-80
[24] = dose: 200.0 mg/kg/injection, schedule: Q04DX002 (ip), vehicle: saline with Tween-80

Measured: T/C

CC(=O)Nc1ncc(CCC2OCCO2)c(=O)[nH]1
inactive: [1] 95 % of control | [2] 97 % of control | [3] 98 % of control

O=C(O)c1ccccc1NC(=O)C(F)(F)F
inactive: dose: 25.0 mg/kg/injection, schedule: Q01DX009 (ip), vehicle: saline sonified 98 % of control | dose: 50.0 mg/kg/injection, schedule: Q01DX009 (ip), vehicle: saline sonified 96 % of control | dose: 100.0 mg/kg/injection, schedule: Q01DX009 (ip), vehicle: saline sonified 93 % of control | [4] 101 % of control

C1CC23CSCC12CSC3 (centres undefined)
inactive: [5] 103 % of control | [6] 111 % of control | [7] 108 % of control

CCCCCCCCSCCC(=O)O
inactive: [8] 97 % of control | [9] 97 % of control | [10] 88 % of control | [11] 92 % of control | [12] 94 % of control

COc1cc2ccnc(C(OC(=O)c3ccccc3)c3ccc(OCc4ccccc4)cc3)c2cc1OC (centres undefined)
inactive: [9] 95 % of control | [11] 88 % of control | [12] 95 % of control

O=C(NNC(=S)Nc1ccccc1Cl)c1ccncc1
inactive: dose: 75.0 mg/kg/injection, schedule: Q01DX009 (ip), vehicle: Klucel (hydroxypropylcellulose) (HPC) 93 % of control | dose: 150.0 mg/kg/injection, schedule: Q01DX009 (ip), vehicle: Klucel (hydroxypropylcellulose) (HPC) 97 % of control | dose: 300.0 mg/kg/injection, schedule: Q01DX009 (ip), vehicle: Klucel (hydroxypropylcellulose) (HPC) 101 % of control

Oc1ccccc1O.[O-]c1ccccc1[O-].[O-]c1ccccc1[O-].[O]=[V+2]
inactive: dose: 4.0 mg/kg/injection, schedule: Q01DX015 (ip), vehicle: saline 100 % of control | dose: 8.0 mg/kg/injection, schedule: Q01DX015 (ip), vehicle: saline 94 % of control | dose: 12.5 mg/kg/injection, schedule: Q04DX003 (ip), vehicle: saline 111 % of control | dose: 16.0 mg/kg/injection, schedule: Q01DX015 (ip), vehicle: saline 96 % of control | dose: 18.75 mg/kg/injection, schedule: Q01DX009 (ip), vehicle: saline 90 % of control | dose: 25.0 mg/kg/injection, schedule: Q04DX003 (ip), vehicle: saline 102 % of control | dose: 32.0 mg/kg/injection, schedule: Q01DX015 (ip), vehicle: saline 102 % of control | dose: 37.5 mg/kg/injection, schedule: Q01DX009 (ip), vehicle: saline 101 % of control | [13] 100 % of control | [14] 97 % of control

C=Nc1ccc(Cl)cc1
inactive: dose: 50.0 mg/kg/injection, schedule: Q01DX001 (ip), vehicle: carboxymethylcellulose (CMC) 98 % of control | [15] 93 % of control | [16] 98 % of control

O=c1cccccc1O.O=c1cccccc1O.O=c1cccccc1O.[Cr]
inactive: [14] 100 % of control | dose: 150.0 mg/kg/injection, schedule: Q04DX003 (ip), vehicle: saline 104 % of control | dose: 300.0 mg/kg/injection, schedule: Q04DX003 (ip), vehicle: saline 90 % of control

Nc1ncnc2c1ncn2C1OC(CO)CC1O (centres undefined)
inactive: dose: 37.0 mg/kg/injection, schedule: Q01DX Z (ip), vehicle: carboxymethylcellulose (CMC) 114 % of control | dose: 50.0 mg/kg/injection, schedule: Q01DX001 (ip), vehicle: saline 111 % of control | dose: 75.0 mg/kg/injection, schedule: Q01DX Z (ip), vehicle: carboxymethylcellulose (CMC) 111 % of control | [5] 111 % of control | dose: 150.0 mg/kg/injection, schedule: Q01DX Z (ip), vehicle: carboxymethylcellulose (CMC) 114 % of control | [6] 115 % of control | dose: 300.0 mg/kg/injection, schedule: Q01DX Z (ip), vehicle: carboxymethylcellulose (CMC) 114 % of control and 115 % of control | [7] 123 % of control

CCN1CC1 (tested in a mixture with another compound)
inactive: dose: 1.56 mg/kg/injection, schedule: Q01DX001 (ip), vehicle: Klucel (hydroxypropylcellulose) (HPC) 101 % of control | dose: 3.12 mg/kg/injection, schedule: Q01DX001 (ip), vehicle: Klucel (hydroxypropylcellulose) (HPC) 99 % of control | dose: 6.25 mg/kg/injection, schedule: Q01DX001 (ip), vehicle: Klucel (hydroxypropylcellulose) (HPC) 104 % of control | dose: 25.0 mg/kg/injection, schedule: Q01DX001 (ip), vehicle: other 111 % of control

O=C(Cn1ccc(O)cc1=O)c1cccs1
inactive: [8] 102 % of control | [9] 101 % of control | [10] 100 % of control | [11] 100 % of control | dose: 400.0 mg/kg/injection, schedule: Q01DX009 (ip), vehicle: saline with Tween-80 98 % of control | [12] 100 % of control

C1CCCC(=[N+]2CCCC2)CCC1
inactive: [17] 100 % of control

Nc1cc2c(cc1[N+](=O)[O-])-c1ccccc1/C2=N\O
inactive: [15] 91 % of control | [16] 100 % of control | dose: 400.0 mg/kg/injection, schedule: Q01DX001 (ip), vehicle: carboxymethylcellulose (CMC) 88 % of control

COc1ccc(I)c([N+](=O)[O-])c1
inactive: [18] 96 % of control | [4] 100 % of control | [19] 96 % of control | [20] 94 % of control | [21] 103 % of control

CCC(=O)Oc1ccc(OCc2ccccc2)cc1
inactive: [18] 95 % of control | [4] 95 % of control | [19] 97 % of control | [20] 98 % of control | [22] 98 % of control | [21] 95 % of control

O=C(O)C1(C(=O)O)CCOCC1
inactive: [13] 93 % of control | [17] 104 % of control | dose: 100.0 mg/kg/injection, schedule: Q04DX003 (ip), vehicle: saline 98 % of control | dose: 200.0 mg/kg/injection, schedule: Q01DX009 (ip), vehicle: saline 102 % of control | dose: 200.0 mg/kg/injection, schedule: Q04DX003 (ip), vehicle: saline 104 % of control | dose: 400.0 mg/kg/injection, schedule: Q01DX009 (ip), vehicle: saline 96 % of control | dose: 400.0 mg/kg/injection, schedule: Q04DX003 (ip), vehicle: saline 103 % of control

Oc1c(Br)cc(F)cc1Br
inactive: [23] 98 % of control | [24] 94 % of control

CCCCN(C(C)=O)c1nnc(NC(C)=O)s1
inactive: [23] 102 % of control | [24] 98 % of control | dose: 400.0 mg/kg/injection, schedule: Q04DX002 (ip), vehicle: saline with Tween-80 98 % of control

CC12CCC3c4ccc(OC(=O)c5ccc(N)cc5)cc4CCC3C1CCC2=O (centres undefined)
inactive: dose: 12.5 mg/kg/injection, schedule: Q04DX002 (ip), vehicle: saline with Tween-80 110 % of control | dose: 25.0 mg/kg/injection, schedule: Q04DX002 (ip), vehicle: saline with Tween-80 106 % of control | dose: 50.0 mg/kg/injection, schedule: Q04DX002 (ip), vehicle: saline with Tween-80 95 % of control | dose: 100.0 mg/kg/injection, schedule: Q01DX001 (sc), vehicle: steriod suspending solution 95 % of control | dose: 200.0 mg/kg/injection, schedule: Q01DX001 (sc), vehicle: steriod suspending solution 97 % of control | dose: 400.0 mg/kg/injection, schedule: Q01DX001 (sc), vehicle: steriod suspending solution 95 % of control

CCc1ccccc1NC(=O)Nc1ccc(CCO)cc1
inactive: [18] 98 % of control | [19] 105 % of control | [22] 96 % of control

CC(=O)NC(CSCc1ccccc1)(SCc1ccccc1)C(=O)O (centres undefined)
inactive: [1] 92 % of control | [2] 90 % of control | [3] 92 % of control
